The target in assay [1] is DNA gyrase subunit A/DNA gyrase subunit B (Mycobacterium tuberculosis (strain ATCC 25618 / H37Rv), UniProt P9WG45+P9WG47). Description: Inhibition of Mycobacterium tuberculosis H37Rv DNA gyrase A/B expressed in Escherichia coli assessed as reduction in supercoiling of relaxed pBR322 DNA substrate measured after 60 mins by ethidium bromide staining based agarose gel electrophoresis method.

For assay [2], the system named is Staphylococcus aureus. Description: Antibacterial activity against Staphylococcus aureus MTCC 96 assessed as zone of inhibition at 25 ug/ml by agar well diffusion method. It is filed as functional. The following applies: read-out: IZ. Background: A growth-free zone around the sample is the usual read-out of agar diffusion tests.
Assay [3] deals with Streptococcus pyogenes. Description: Antibacterial activity against Streptococcus pyogenes MTCC 442 assessed as zone of inhibition at 25 ug/ml by agar well diffusion method. The following applies: read-out: IZ. It is filed as functional.
In assay [4] the test system is Escherichia coli. Description: Antibacterial activity against Escherichia coli MTCC 443 assessed as zone of inhibition at 25 ug/ml by agar well diffusion method. The following applies: read-out: IZ. It is filed as functional.
Assay [5] relates to Pseudomonas aeruginosa. Description: Antibacterial activity against Pseudomonas aeruginosa MTCC 424 assessed as zone of inhibition at 25 ug/ml by agar well diffusion method. It is filed as functional. The following applies: read-out: IZ.
The subject of assay [6] is Escherichia coli. Description: Antibacterial activity against Escherichia coli by broth dilution method. It counts as functional. (In general: Dilution methods test growth across graded concentrations, often in twofold steps.)
Assay [7] deals with Pseudomonas aeruginosa. Description: Antibacterial activity against Pseudomonas aeruginosa by broth dilution method. It is filed as functional.
In assay [8] the test system is Staphylococcus aureus. Description: Antibacterial activity against Staphylococcus aureus assessed as diameter of inhibition zone at 250 ug/ml after 24 hrs by disc diffusion method. It counts as functional. The following applies: read-out: DIZ.
Assay [9] has as its system Escherichia coli. Description: Antibacterial activity against Escherichia coli assessed as diameter of inhibition zone at 250 ug/ml after 24 hrs by disc diffusion method. To be noted: read-out: DIZ. It is filed as functional.
Assay [10] concerns Bacillus spizizenii. Description: Antibacterial activity against Bacillus subtilis ATCC 6633 after 24 hrs by broth dilution method. The following applies: ATCC 6633, 24 h. It is filed as functional.
Assay [11] deals with Staphylococcus aureus. Description: Antibacterial activity against Staphylococcus aureus ATCC 29213 after 24 hrs by broth dilution method. It counts as functional. To be noted: ATCC 29213, 24 h.
Assay [12] deals with Escherichia coli. Description: Antibacterial activity against Escherichia coli ATCC 11229 after 24 hrs by broth dilution method. It counts as functional. The following applies: ATCC 11229, 24 h.
For assay [13], the system named is Proteus vulgaris. Description: Antibacterial activity against Proteus vulgaris […] after 24 hrs by broth dilution method. It is filed as functional.
Assay [14] deals with Staphylococcus aureus. Description: Antibacterial activity against Staphylococcus aureus MTCC 96 assessed as zone of inhibition at 100 ug/ml by disc diffusion method. It counts as functional. To be noted: read-out: IZ.
The subject of assay [15] is Streptococcus pyogenes. Description: Antibacterial activity against Streptococcus pyogenes MTCC 442 assessed as zone of inhibition at 100 ug/ml by disc diffusion method. It counts as functional. To be noted: read-out: IZ.
Assay [16] deals with Escherichia coli. Description: Antibacterial activity against Escherichia coli MTCC 443 assessed as zone of inhibition at 100 ug/ml by disc diffusion method. To be noted: read-out: IZ. It is filed as functional.
In assay [17] the test system is Pseudomonas aeruginosa. Description: Antibacterial activity against Pseudomonas aeruginosa MTCC 424 assessed as zone of inhibition at 100 ug/ml by disc diffusion method. It is filed as functional. The following applies: read-out: IZ.
Assay [18] concerns Mycobacterium tuberculosis. Description: Antimycobacterial activity against Mycobacterium tuberculosis H37Rv ATCC 27294 after 5 days by microplate alamar blue assay. It counts as functional. To be noted: H37Rv ATCC 27294, 120 h.
The subject of assay [19] is Bacillus subtilis. Description: Antibacterial activity against Bacillus subtilis MTCC 1134 after 24 hrs by broth dilution method. It is filed as functional. To be noted: MTCC 1134, 24 h.
Assay [20] concerns Escherichia coli. Description: Antibacterial activity against Escherichia coli MTCC 1559 after 24 hrs by broth dilution method. It is filed as functional. The following applies: MTCC 1559, 24 h.
Assay [21] has as its system Pseudomonas aeruginosa. Description: Antibacterial activity against Pseudomonas aeruginosa MTCC 1034 after 24 hrs by broth dilution method. It counts as functional. To be noted: MTCC 1034, 24 h.

Converted amounts (≈) assume the structure as drawn.

What is called IC50 is the concentration needed to halve the response being measured. For orientation: MIC means the lowest concentration that inhibits growth of the organism. Read a low MIC as inhibition by little substance.

Chain of DNA gyrase subunit A/DNA gyrase subunit B (P9WG45 whole entry): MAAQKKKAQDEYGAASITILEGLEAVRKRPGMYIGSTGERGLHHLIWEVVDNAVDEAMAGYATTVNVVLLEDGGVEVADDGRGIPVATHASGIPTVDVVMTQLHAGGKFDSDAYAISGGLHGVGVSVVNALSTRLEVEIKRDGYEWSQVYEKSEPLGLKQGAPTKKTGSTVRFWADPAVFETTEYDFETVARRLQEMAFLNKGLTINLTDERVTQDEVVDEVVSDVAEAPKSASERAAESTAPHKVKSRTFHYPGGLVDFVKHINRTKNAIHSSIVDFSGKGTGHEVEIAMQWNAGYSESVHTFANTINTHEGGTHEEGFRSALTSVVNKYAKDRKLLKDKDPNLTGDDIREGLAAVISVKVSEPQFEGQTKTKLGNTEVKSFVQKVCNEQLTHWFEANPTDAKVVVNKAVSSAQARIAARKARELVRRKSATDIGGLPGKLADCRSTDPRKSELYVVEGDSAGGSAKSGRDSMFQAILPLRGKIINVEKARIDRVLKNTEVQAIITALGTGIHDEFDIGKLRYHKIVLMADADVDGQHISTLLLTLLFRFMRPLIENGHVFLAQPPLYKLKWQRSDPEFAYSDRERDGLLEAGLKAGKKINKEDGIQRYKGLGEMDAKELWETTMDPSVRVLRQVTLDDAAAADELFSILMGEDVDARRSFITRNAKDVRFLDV
Chain of DNA gyrase subunit A/DNA gyrase subunit B (P9WG47 whole entry): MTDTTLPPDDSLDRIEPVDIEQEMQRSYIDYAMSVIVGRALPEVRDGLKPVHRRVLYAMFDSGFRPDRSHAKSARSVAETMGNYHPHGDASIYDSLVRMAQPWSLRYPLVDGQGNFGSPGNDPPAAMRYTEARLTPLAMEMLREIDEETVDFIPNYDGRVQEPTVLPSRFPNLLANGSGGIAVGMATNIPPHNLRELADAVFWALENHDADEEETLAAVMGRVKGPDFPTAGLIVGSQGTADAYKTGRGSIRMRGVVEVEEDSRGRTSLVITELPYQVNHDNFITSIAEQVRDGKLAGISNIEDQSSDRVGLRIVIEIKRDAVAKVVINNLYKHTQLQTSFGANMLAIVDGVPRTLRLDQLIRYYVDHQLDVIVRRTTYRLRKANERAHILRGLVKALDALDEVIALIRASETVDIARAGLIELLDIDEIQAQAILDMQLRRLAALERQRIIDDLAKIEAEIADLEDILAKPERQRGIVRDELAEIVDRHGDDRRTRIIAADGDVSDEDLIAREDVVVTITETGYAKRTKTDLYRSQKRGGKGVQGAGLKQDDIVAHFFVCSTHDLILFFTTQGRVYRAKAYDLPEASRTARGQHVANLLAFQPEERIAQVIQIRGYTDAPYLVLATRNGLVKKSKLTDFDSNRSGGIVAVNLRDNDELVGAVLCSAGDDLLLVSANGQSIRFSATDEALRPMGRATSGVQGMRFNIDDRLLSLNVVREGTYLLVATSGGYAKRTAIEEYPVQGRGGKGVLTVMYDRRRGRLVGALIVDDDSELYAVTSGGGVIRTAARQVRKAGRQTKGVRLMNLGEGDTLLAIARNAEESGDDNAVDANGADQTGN

Regarding `O=C(N/N=C1\C(=O)N(c2ccccc2)c2ccccc21)c1cc2ccccc2o1`, the IC50 in assay [1] lay in the range of 50 to 200 µM.
Consider `COc1cc(OC)c(-c2cc3cc(C(=O)/C=C/c4ccc5occc5c4)cc(OC)c3o2)c(OC)c1`, for which the zone of inhibition at 25 µg/mL in assay [2], in [3], in assay [4] and in assay [5] was 21 to 28 mm in each case.
For `O=c1oc2ccc(Br)cc2cc1-c1coc2c1ccc1ccccc12`, the minimum inhibitory concentration (MIC) in assay [6] and in [7] was 6.25 to 100 µg/mL (≈ 16 to 256 µM) throughout.
Regarding `Cc1ccc(Oc2nc3ccc(C)cc3cc2C2SCC(=O)N2NC(=O)c2cc(-c3cc4ccccc4o3)n(-c3ccccc3)n2)cc1` (centres undefined), the zone of inhibition at 250 µg/mL in assay [8] and in assay [9] was 12 to 14 mm throughout.
`Cc1ccc(Oc2nc3ccc(C)cc3cc2/C=N\NC(=O)c2cc(-c3cc4ccccc4o3)n(-c3ccccc3)n2)cc1`: the zone of inhibition at 250 µg/mL in assay [8] and in [9] was 12 to 14 mm each time.
Consider `COc1ccc(-c2nn(-c3ccccc3)cc2/C=C/c2oc3c4c(ccc3c2C(=O)c2ccc(Br)cc2)OCC=C4)cc1`, for which the MIC in assay [10], in assay [11], in [12] and in assay [13] was 3.1 to 6.3 µg/mL (≈ 4.92 to 10 µM) in each case.
For the compound `Cc1cc(NS(=O)(=O)c2ccc(Cl)cc2)c2oc(COC(=O)NCc3ccccc3)cc2c1`, the zone of inhibition at 100 µg/mL in assay [14], in assay [15], in assay [16] and in assay [17] was 11 to 28 mm in each case.
In the case of `O=C1Nc2ccc(Cl)cc2/C1=N/NC(=O)c1cc2ccccc2o1`, the 50% inhibitory concentration (IC50) in [1] fell in the range of 50 to 200 µM.
As for `CC(=O)Nc1cc(C)cc2cc(COC(=O)NCc3ccccc3)oc12`, the zone of inhibition at 100 µg/mL in assay [14], in assay [15], in assay [16] and in [17] was 11 to 28 mm throughout.
`Cc1ccc(S(=O)(=O)Nc2cc(C)cc3cc(COC(=O)NCc4ccccc4)oc23)cc1`: the zone of inhibition at 100 µg/mL in assay [14], in assay [15], in [16] and in assay [17] was 11 to 28 mm throughout.
Take `COc1ccc2occ(-c3cc4cc(Br)ccc4oc3=O)c2c1`: the minimal inhibitory concentration (MIC) in assay [6] and in assay [7] was 6.25 to 100 µg/mL (≈ 16.8 to 269 µM) throughout.
Take `Cc1ccc2c(-c3cc4ccccc4oc3=O)coc2c1`: the MIC in assay [6] and in [7] was 6.25 to 100 µg/mL (≈ 22.6 to 362 µM) each time.
Turning to `CCOc1ccc(-c2nn(-c3ccccc3)cc2/C=C/c2oc3c4c(ccc3c2C(=O)c2ccc(Br)cc2)OCC=C4)cc1`, the minimum inhibitory concentration (MIC) in assay [10], in [11], in assay [12] and in assay [13] was 6.3 to 25 µg/mL (≈ 9.79 to 38.8 µM) each time.
Consider `CN[C@@H]1[C@H](O[C@H]2[C@H](O[C@H]3[C@H](O)[C@@H](O)[C@H](N=C(N)N)[C@@H](O)[C@@H]3N=C(N)N)O[C@@H](C)[C@]2(O)C=O)O[C@@H](CO)[C@H](O)[C@H]1O` [STREPTOMYCIN], for which the MIC in assay [18] is 6.25 µg/mL (≈ 10.7 µM); in [19], 17.2 to 19.4 µg/mL (≈ 29.7 to 33.3 µM); in assay [20], 17.2 to 19.4 µg/mL (≈ 29.7 to 33.3 µM); in assay [21], 17.2 to 19.4 µg/mL (≈ 29.7 to 33.3 µM).
`O=c1oc2ccccc2cc1-c1coc2ccc3ccccc3c12`: the MIC in assay [6] and in [7] was 6.25 to 100 µg/mL (≈ 20 to 320 µM) throughout.
With `O=c1oc2ccc(Br)cc2cc1-c1coc2ccc3ccccc3c12`, the MIC in assay [6] and in assay [7] was 6.25 to 100 µg/mL (≈ 16 to 256 µM) each time.
`NC(=O)c1cnccn1` [PYRAZINAMIDE] displayed a minimum inhibitory concentration (MIC) in assay [18] of 3.12 µg/mL (≈ 25.4 µM).
For `Cc1cc(NC(=O)c2ccccc2)c2oc(COC(=O)NCc3ccccc3)cc2c1`, the zone of inhibition at 100 µg/mL in [14], in [15], in assay [16] and in assay [17] was 11 to 28 mm each time.

(Values after ChEMBL document CHEMBL4382229, “Benzofuran derivatives and their anti-tubercular, anti-bacterial activities” (Eur J Med Chem, 2019).)
